# Experiments:
# Assay type in all cases: in vivo
# Echinochloa oryzicola = assay: Herbicidal activity by paddy field soil treatment (Test Example 1); parameters: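 index 0 to 10 in 10% steps of herbicidal effect with 10 meaning complete death and 0 below 10%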; settings: 1000 g of effective component per hectare, evaluated on day 21 after the treatment, criteria of Table 72
# Procedure, shortened: (§1)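 Seeds were sown in puddled paddy soil in pots flooded to 3 cm water depth; the next day a water-diluted wettable powder was applied to the water surface at 1000 g active ingredient/ha. Plants were grown in a greenhouse and herbicidal effect scored by graded criteria on day 21 after treatment.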
# Monochoria vaginalis = assay: as above; parameters: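 index 0 to 10 in 10% steps of herbicidal effect with 10 meaning complete death and 0 below 10%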; settings: 1000 g of effective component per hectare, evaluated on day 21 after the treatment, criteria of Table 72
# Procedure, shortened: as §1
# Scirpus juncoides Rocxb. = assay: as above; parameters: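 index 0 to 10 in 10% steps of herbicidal effect with 10 meaning complete death and 0 below 10%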; settings: applied on water surface, 1000 g of effective component per hectare, day 21 after the treatment
# Procedure, shortened: as §1
# A. retroflexus [1] = assay: Herbicidal activity by field soil treatment (Test example 2); parameters: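 index 0 to 10 in 10% steps of herbicidal effect with 10 meaning complete death and 0 below 10%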; settings: 1000 g effective component per hectare, day 21 after the treatment
# Procedure, shortened: (§2)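 Seeds were sown in field soil in 80 cm^2 pots and covered with soil. A water-diluted wettable powder was then sprayed onto the soil surface at 1000 liters per hectare, delivering 1000 g active ingredient per hectare. Plants grew in a greenhouse, and herbicidal effect was scored against set criteria 21 days after treatment.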
# Indian millet [2] = assay: as above; parameters: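 index 0 to 10 in 10% steps of herbicidal effect with 10 meaning complete death and 0 below 10%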; settings: 1000 g effective component per hectare, day 21 after the treatment
# Procedure, shortened: as §2
# A. retroflexus [3] = assay: Herbicidal activity by field foliage treatment (Test example 3); parameters: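 index 0 to 10 in 10% steps of herbicidal effect with 10 meaning complete death and 0 below 10%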; settings: 1000 g effective component per hectare, day 14 after the treatment
# Procedure, shortened: (§3)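 Plants were grown from seed in field soil in a greenhouse for 2 weeks, then sprayed over the whole foliage with a water-diluted wettable powder at 1000 L/ha spray volume, delivering 1000 g active ingredient per hectare. Herbicidal effect was scored on day 14 after treatment.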
# Indian millet [4] = assay: as above; parameters: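 index 0 to 10 in 10% steps of herbicidal effect with 10 meaning complete death and 0 below 10%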; settings: 1000 g effective component per hectare, day 14 after the treatment
# Procedure, shortened: as §3
# Echinochloa crus-galli [5] = assay: as above; parameters: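 index 0 to 10 in 10% steps of herbicidal effect with 10 meaning complete death and 0 below 10%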; settings: 1000 g effective component per hectare, day 14 after the treatment
# Procedure, shortened: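 Potted field-soil plants grown 2 weeks in a greenhouse were sprayed over the whole foliage with diluted wettable powder at 1000 L/ha, delivering 1000 g active ingredient per hectare. Herbicidal effect scored by visual criteria 14 days after treatment.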
# Setaria viridis = assay: as above; settings: 1000 g effective component per hectare, day 14 after the treatment;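 further: index 0 to 10 in 10% steps of herbicidal effect with 10 meaning complete death and 0 below 10%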
# Procedure: Test example 3 Test for Determining Herbicidal Activity by Field Foliage Treatment A 80 cm^2 wide plastic pot was filled with a field soil and seeds of each of Indian millet and A. retroflexus were sowed and then incubated for 2 weeks in a green house. The wettable powder produced with reference to the Formulation example 1 was diluted water, and applied from the air to entire body of the plant as foliage treatment by using a small sprayer in an amount of 1000 liters per hectare so that the effective component is 1000 g per hectare. After that, the plants were cultivated in a greenhouse, and on day 14 after the treatment, evaluation was made by the criteria described in Table 72 for determining the herbicidal effects.
# Echinochloa crus-galli [6] = assay: Herbicidal activity by field soil treatment (Test example 2); parameters: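 index 0 to 10 in 10% steps of herbicidal effect with 10 meaning complete death and 0 below 10%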; settings: 1000 g effective component per hectare, day 21 after the treatment
# Procedure, shortened: as §2
SMILES,"Herbicidal effects index number, Echinochloa oryzicola (Echinochloa oryzicola)","Herbicidal effects index number, Monochoria vaginalis (Monochoria vaginalis)","herbicidal effect index, S. juncoides Rocxb. (Scirpus juncoides Rocxb.)","herbicidal effect index, Amaranthus retroflexus (A. retroflexus [1])","herbicidal effect index, Abutilon theophrasti (Indian millet [2])","herbicidal effect index, Amaranthus retroflexus (A. retroflexus [3])","herbicidal effect index, Abutilon theophrasti (Indian millet [4])","herbicidal effect index, Echinochloa crus-galli (Echinochloa crus-galli [5])","herbicidal effect index, Setaria viridis (Setaria viridis)","herbicidal effect index, Echinochloa crus-galli (Echinochloa crus-galli [6])"
Cc1cc(Cl)cc(-n2c(=O)c(C(=O)C3=C(O)CCCC3=O)nn(C)c2=O)c1 [I-126],10,10,10,10,10,10,9,9,7,
O=C1CCCC(O)=C1C(=O)c1nn(C(F)F)c(=O)n(-c2ccccc2)c1=O [I-261],8,10,8,,10,10,10,,7,
Cn1nc(C(=O)C2=C(O)CCCC2=O)c(=O)n(-c2ccccc2)c1=S [I-263],10,10,10,10,8,10,10,9,9,
CC(=O)Cn1c(=O)c(C(=O)C2=C(O)CCCC2=O)nn(C)c1=O [I-328],10,10,10,,,10,10,7,7,
C#Cc1ccc(-n2c(=O)c(C(=O)C3=C(O)CCCC3=O)nn(C)c2=O)nc1 [I-463],10,10,10,7,10,10,9,7,7,
COc1cc(-n2c(=O)c(C(=O)C3=C(O)CCCC3=O)nn(C)c2=S)cc(OC)c1OC [I-464],10,10,10,7,,10,10,,7,
Cn1nc(C(=O)C2=C(O)CCCC2=O)c(=O)n(-c2cc(Cl)c(Cl)c(Cl)c2)c1=O [I-465],10,10,10,10,10,10,10,8,10,
Cn1nc(C(=O)C2=C(O)CCCC2=O)c(=O)n(CC(=O)C(C)(C)C)c1=O [I-468],10,10,10,7,,10,10,9,9,
Cn1nc(C(=O)C2=C(O)CCCC2=O)c(=O)n(-c2c(F)c(F)cc(F)c2F)c1=O [I-469],10,10,10,,,10,10,10,10,
Cn1nc(C(=O)C2=C(O)CCCC2=O)c(=O)n(-c2cc(C(F)(F)F)cc(C(F)(F)F)c2)c1=O [I-470],10,10,10,8,7,10,10,8,9,
Cn1nc(C(=O)O)c(=O)n(CC(=O)C(C)(C)C)c1=O [V-362],10,10,10,7,,10,10,9,9,
Cn1nc(C(=O)O)c(=O)n(-c2c(F)c(F)cc(F)c2F)c1=O [V-363],10,10,10,,,10,10,10,10,
CN(c1ccc(F)cc1)n1c(=O)c(C(=O)O)nn(C)c1=O [V-370],10,10,10,10,10,10,9,7,,7
CCON=C(C)Cn1c(=O)c(C(=O)O)nn(C)c1=O [V-371],10,10,9,10,10,10,9,8,,9
COc1cc(-n2c(=O)c(C(=O)C3=C(O)C(C)(C)C(=O)C(C)(C)C3=O)nn(C)c2=O)cc(OC)c1OC [VI-97],10,10,10,,,10,10,7,10,
